# Test results published in US20250179061A1 (SIRONAX LTD., priority 2022, published 2025).
# Test system: HT-29 cells
# Assay: HT-29 necroptosis cell viability assay (TNF-α/SMAC mimetic/zVAD-FMK, CellTiter-Glo)
# Assay type: cell-based
# Conditions: Homo sapiens, HT-29, HT-29 cells, necroptosis induced by TNF-α/SMAC mimetic/zVAD-FMK, CellTiter-Glo; read-out: Activity (IC50 class)
# Outline: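 HT-29 cells (~5,000/well, overnight) in FBS-free McCoy's 5A with TNF-α 10 ng/ml, SMAC mimetic 6 μM and zVAD-FMK 10 μM plus 10-point 1:3 compound titration, 20 h at 37°C. ATP measured by CellTiter-Glo luminescence; IC50 as geometric mean of duplicates.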
row,SMILES,IC50 [nM]
1,"Cc1nc(CC(=O)O)sc1Oc1ccc(-n2ncn(Cc3c(F)cccc3F)c2=O)cc1F [Example 637, 2-[5-[4-[4-[(2,6-difluorophenyl)methyl]-5-oxo-1,2,4-triazol-1-yl]-2-fluoro-phenoxy]-4-methyl-thiazol-2-yl]acetic acid]",< 100

# Same assay, conditions: Homo sapiens, HT-29, HT-29 necroptosis cell viability assay; class symbols for IC50; read-out: Activity
row,SMILES,IC50 [nM]
1,"Cc1nn(-c2ccc(S(=O)(=O)N3CCN(C4CCCCC4)CC3)cc2)c(=O)n1Cc1ccccc1 [Example 620, 4-benzyl-2-(4-((4-cyclohexylpiperazin-1-yl)sulfonyl)phenyl)-5-methyl-2,4-dihydro-3H-1,2,4-triazol-3-one]",1000 to 10000
2,"CCOC(=O)c1cc(C)nn1Cc1ccc(-n2ncn(Cc3c(F)cccc3F)c2=O)cc1F [Example 197, ethyl 1-(4-(4-(2,6-difluorobenzyl)-5-oxo-4,5-dihydro-1H-1,2,4-triazol-1-yl)-2-fluorobenzyl)-3-methyl-1H-pyrazole-5-carboxylate]",< 100
3,"CCOC(=O)c1nc(Oc2ccc(-n3ncn(Cc4c(F)cccc4F)c3=O)cc2F)n(C)c1C [Example 181, ethyl 2-(4-(4-(2,6-difluorobenzyl)-5-oxo-4,5-dihydro-1H-1,2,4-triazol-1-yl)-2-fluorophenoxy)-1,5-dimethyl-1H-imidazole-4-carboxylate]",100 to 1000
4,"Cc1nc(CC#N)sc1Oc1ccc(-n2ncn(Cc3c(F)cccc3F)c2=O)cc1Cl [Example 139, 2-(5-(2-chloro-4-(4-(2,6-difluorobenzyl)-5-oxo-4,5-dihydro-1H-1,2,4-triazol-1-yl)phenoxy)-4-methylthiazol-2-yl)acetonitrile]",< 100
5,"O=c1n(Cc2c(F)cccc2F)cnn1-c1ccc(Oc2ccnc(N3CC4(COC4)C3)c2)cc1 [Example 527, 2-(4-((2-(2-oxa-6-azaspiro[3.3]heptan-6-yl)pyridin-4-yl)oxy)pheny)-4-(2,6-difluorobenzyl)-2,4-dihydro-3H-1,2,4-triazol-3-one]",100 to 1000
6,"Cc1nc(C#N)c(C)n1Cc1ccc(-n2ncn(Cc3c(F)cccc3F)c2=O)cc1F [Example 122, 1-(4-(4-(2,6-difluorobenzyl)-5-oxo-4,5-dihydro-1H-1,2,4-triazol-1-yl)-2-fluorobenzyl)-2,5-dimethyl-1H-imidazole-4-carbonitrile]",< 100
7,"CNC(=O)c1nc(C)c(Oc2ccc(-n3ncn(Cc4c(F)cccc4F)c3=O)cc2F)s1 [Example 609, 5-(4-(4-(2,6-difluorobenzyl)-5-oxo-4,5-dihydro-1H-1,2,4-triazol-1-yl)-2-fluorophenoxy)-N,4-dimethylthiazole-2-carboxamide]",< 100
8,"Cc1nc(C(=O)N2C[C@H](N)[C@@H]2C)sc1Oc1ccc(-n2ncn(Cc3ccccc3F)c2=O)cc1F [Example 587, 2-(4-((2-((2S,3S)-3-amino-2-methylazetidine-1-carbonyl)-4-methylthiazol-5-yl)oxy)-3-fluorophenyl)-4-(2-fluorobenzyl)-2,4-dihydro-3H-1,2,4-triazol-3-one]",< 100
9,"CC1(O)CN(c2cc(S(=O)(=O)c3ccc(-n4ncn(Cc5c(F)cccc5F)c4=O)cc3)ccn2)C1 [Example 493, 4-(2,6-difluorobenzyl)-2-(4-((2-(3-hydroxy-3-methylazetidin-1-yl)pyridin-4-yl)sulfonyl)phenyl)-2,4-dihydro-3H-1,2,4-triazol-3-one]",< 100
10,"Cc1nc(CC(N)=O)sc1Oc1ccc(-n2ncn(Cc3c(F)cccc3F)c2=O)cc1F [Example 168, 2-(5-(4-(4-(2,6-difluorobenzyl)-5-oxo-4,5-dihydro-1H-1,2,4-triazol-1-yl)-2-fluorophenoxy)-4-methylthiazol-2-yl)acetamide]",< 100
11,"Cc1nc(C2CCCC2)sc1Oc1ccc(-n2ncn(Cc3c(F)cccc3F)c2=O)cc1 [Example 558, 2-(4-((2-cyclopentyl-4-methylthiazol-5-yl)oxy)phenyl)-4-(2,6-difluorobenzyl)-2,4-dihydro-3H-1,2,4-triazol-3-one]",< 100
12,"CCOC(=O)C(=O)c1nc(C)c(Oc2ccc(-n3ncn(Cc4c(F)cccc4F)c3=O)cc2F)s1 [Example 117, ethyl 2-(5-(4-(4-(2,6-difluorobenzyl)-5-oxo-4,5-dihydro-1H-1,2,4-triazol-1-yl)-2-fluorophenoxy)-4-methylthiazol-2-yl)-2-oxoacetate]",100 to 1000

# Same assay, conditions: Homo sapiens, HT-29, HT-29 necroptosis cell viability, IC50 class symbols; read-out: Activity
row,SMILES,IC50 [nM]
1,"N#CC12CC(Nc3nccc(Oc4ccc(-n5ncn(Cc6c(F)cccc6F)c5=O)cc4Cl)c3F)(C1)C2 [Example 391, 3-((4-(2-chloro-4-(4-(2,6-difluorobenzyl)-5-oxo-4,5-dihydro-1H-1,2,4-triazol-1-yl)phenoxy)-3-fluoropyridin-2-yl)amino)bicyclo[1.1.1]pentane-1-carbonitrile]",100 to 1000
2,"Cc1c(Oc2ccc(-n3ncn(Cc4c(F)cccc4F)c3=O)cc2F)ccnc1NC12CC(C#N)(C1)C2 [Example 271, 3-((4-(4-(4-(2,6-difluorobenzyl)-5-oxo-4,5-dihydro-1H-1,2,4-triazol-1-yl)-2-fluorophenoxy)-3-methylpyridin-2-yl)amino)bicyclo[1.1.1]pentane-1-carbonitrile]",< 100
3,"CC1(C#N)CN(c2nccc(Oc3ccc(-n4ncn(Cc5c(F)cccc5F)c4=O)cc3Cl)c2F)C1 [Example 224, 1-(4-(2-chloro-4-(4-(2,6-difluorobenzyl)-5-oxo-4,5-dihydro-1H-1,2,4-triazol-1-yl)phenoxy)-3-fluoropyridin-2-yl)-3-methylazetidine-3-carbonitrile]",< 100
4,"CC1(CO)CCN(c2cc(Oc3ccc(-n4ncn(Cc5c(F)cccc5F)c4=O)cc3)ccn2)C1 (centres unmarked) [Example 265, 4-(2,6-difluorobenzyl)-2-(4-((2-(3-(hydroxymethyl)-3-methylpyrrolidin-1-yl)pyridin-4-yl)oxy)phenyl)-2,4-dihydro-3H-1,2,4-triazol-3-one]",100 to 1000
5,"O=c1n(Cc2c(F)cccc2F)cnn1-c1ccc(Oc2cc(N3CC4(CCCN4)C3)ncc2Cl)c(F)c1 [Example 412, 2-(4-((5-chloro-2-(2,5-diazaspiro[3.4]octan-2-yl)pyridin-4-yl)oxy)-3-fluorophenyl)-4-(2,6-difluorobenzyl)-2,4-dihydro-3H-1,2,4-triazol-3-one]",100 to 1000
6,"C[C@H]1[C@@H](O)CN1c1cc(Oc2ncc(-n3ncn(Cc4c(F)cccc4F)c3=O)cc2F)ccn1 [Example 250, 4-(2,6-difluorobenzyl)-2-(5-fluoro-6-((2-((2S,3S)-3-hydroxy-2-methylazetidin-1-yl)pyridin-4-yl)oxy)pyridin-3-yl)-2,4-dihydro-3H-1,2,4-triazol-3-one]",< 100
7,"O=c1n(Cc2c(F)cccc2F)cnn1-c1ccc(Oc2ccnnc2)cc1 [Example 431, 4-(2,6-difluorobenzyl)-2-(4-(pyridazin-4-yloxy)phenyl)-2,4-dihydro-3H-1,2,4-triazol-3-one]",1000 to 10000
8,"CC1(C#N)CN(c2cc(Oc3ccc(-n4ncn(Cc5c(F)cccc5F)c4=O)cc3F)c(F)cn2)C1 [Example 262, 1-(4-(4-(4-(2,6-difluorobenzyl)-5-oxo-4,5-dihydro-1H-1,2,4-triazol-1-yl)-2-fluorophenoxy)-5-fluoropyridin-2-yl)-3-methylazetidine-3-carbonitrile]",< 100
9,"N#CC12CC(Nc3cc(Oc4ccc(-n5ncn(Cc6c(F)cccc6F)c5=O)cc4Cl)c(F)cn3)(C1)C2 [Example 272, 3-((4-(2-chloro-4-(4-(2,6-difluorobenzyl)-5-oxo-4,5-dihydro-1H-1,2,4-triazol-1-yl)phenoxy)-5-fluoropyridin-2-yl)amino)bicyclo[1.1.1]pentane-1-carbonitrile]",< 100
10,"CC1(CN)CN(c2cc(Oc3ccc(-n4ncn(Cc5c(F)cccc5F)c4=O)cc3F)c(F)cn2)C1 [Example 399, 2-(4-((2-(3-(aminomethyl)-3-methylazetidin-1-yl)-5-fluoropyridin-4-yl)oxy)-3-fluorophenyl)-4-(2,6-difluorobenzyl)-2,4-dihydro-3H-1,2,4-triazol-3-one]",100 to 1000
11,"N#CC1CCCN(c2cc(Oc3ccc(-n4ncn(Cc5c(F)cccc5F)c4=O)cc3)ccn2)C1 (centres unmarked) [Example 277, 1-(4-(4-(4-(2,6-difluorobenzyl)-5-oxo-4,5-dihydro-1H-1,2,4-triazol-1-yl)phenoxy)pyridin-2-yl)piperidine-3-carbonitrile]",100 to 1000
12,"Cc1nc(N2CC(OC(C)(C)C)C2)sc1Oc1ccc(-n2ncn(Cc3c(F)cccc3F)c2=O)cc1 [Example 456, 2-(4-((2-(3-(tert-butoxy)azetidin-1-yl)-4-methylthiazol-5-yl)oxy)phenyl)-4-(2,6-difluorobenzyl)-2,4-dihydro-3H-1,2,4-triazol-3-one]",< 100

# Same assay, conditions: Homo sapiens; HT-29 cells stimulated with TNF-α (10 ng/ml), SMAC mimetic (6 μM) and zVAD-FMK (10 μM); 20 hours; CellTiter-Glo ATP luminescence; geometric mean IC50 from 10 points; read-out: Activity
row,SMILES,IC50 [nM]
1,"O=c1n(Cc2c(F)cccc2F)cnn1-c1ccc(Oc2nc3c(s2)CCCC3)cc1 [Example 83, 4-(2,6-difluorobenzyl)-2-(4-((4,5,6,7-tetrahydrobenzo[d]thiazol-2-yl)oxy)phenyl)-2,4-dihydro-3H-1,2,4-triazol-3-one]",100 to 1000
2,"COC(=O)c1nc(C)c(Oc2ccc(-n3ncn(Cc4ncccc4C#N)c3=O)cc2F)s1 [Example 33, methyl 5-(4-(4-((3-cyanopyridin-2-yl)methyl)-5-oxo-4,5-dihydro-1H-1,2,4-triazol-1-yl)-2-fluorophenoxy)-4-methylthiazole-2-carboxylate]",100 to 1000
3,"Cc1nc(Br)sc1Oc1ccc(-n2ncn(Cc3c(F)cccc3F)c2=O)cc1F [Example 1, 2-(4-((2-bromo-4-methylthiazol-5-yl)oxy)-3-fluorophenyl)-4-(2,6-difluorobenzyl)-2,4-dihydro-3H-1,2,4-triazol-3-one]",< 100
4,"Cc1ncc(C(N)=O)n1Cc1ccc(-n2ncn(Cc3c(F)cccc3F)c2=O)cc1F [Example 104, 1-(4-(4-(2,6-difluorobenzyl)-5-oxo-4,5-dihydro-1H-1,2,4-triazol-1-yl)-2-fluorobenzyl)-2-methyl-1H-imidazole-5-carboxamide]",< 100
